From a melting point compilation (Tetko et al.)

SMILES | melting point
COC1=C(OC)C(C(O)CBr)OC1=O (centres undefined) | 96 °C
CC(C)CI | -93 °C
c1ccc(P(c2ccccc2)c2ccccc2Oc2ccccc2P(c2ccccc2)c2ccccc2)cc1 | 184 to 187 °C
Cc1nc2ccc(N)cc2s1 | 122 to 124 °C
O=[N+]([O-])c1ccc(Oc2ccc(C(F)(F)F)cc2Cl)cc1 | 68 °C
CC1=C(C(=O)OCc2ccccc2)C(c2cccc([N+](=O)[O-])c2)NC(=S)N1 (centres undefined) | 176 °C
O=C(Cl)c1ccc(Oc2ccccc2)nc1 | 80 to 82 °C
CNc1ccc2cc3ccc4c(c3nc2c1CO)COCN4S(C)(=O)=O | 205 °C
COC(=O)c1cc2cc3cc(C(=O)OC)c(C(=O)OC)cc3cc2cc1C(=O)OC | 220 °C
O=C(O)Cc1csc2ccc(Cl)cc12 | 154 °C
O=C(O)Cc1c[nH]c2ccccc12 | 169 °C
NCCCNCCCN | -14 °C
CC(C)Oc1cccc(OC(C)C)c1-c1ccccc1P(C1CCCCC1)C1CCCCC1 | 124 °C
CCCCOc1ccc(-c2nnc3n2NC(c2ccc(O)c(OC)c2)S3)cc1 (centres undefined) | 144 °C
O=C(O)CCc1ccccc1O | 87 °C
CCCOC(N)=O | 60 °C
COc1ccc(C(=O)CC#N)cc1 | 129 to 132 °C
O=[N+]([O-])c1ccc2c3c(ccc(C(Cl)=Cc4ccccc4)c13)CC2 | 161 °C
Cc1nc(CC#N)sc1/N=N/c1ccc([N+](=O)[O-])cc1 | 233 °C
ON=C(Cc1ccccc1)c1cccc2ccccc12 | 150 °C
c1ccc2c(c1)OCCOCCOCCOc1ccccc1OCCOCCOCCO2 | 102 to 106 °C
CCCOC(=O)CCCCC(=O)OCCC | -15.7 °C
CC1Sc2ccc(Cl)cc2-c2nc(N)ncc21 (centres undefined) | 181 to 183 °C
Nc1ccc(C(=O)O)cc1O | 211 to 215 °C
CC12CC3CC(Br)(C1)CC(C(=O)O)(C3)C2 (centres undefined) | 118 to 120 °C

SMILES | melting point
O=C1OC(c2ccccc2)=NC1=Cc1cc([N+](=O)[O-])ccc1O | 231 to 232 °C
O=C1C2=C(CCCC2)C(=O)N1CO | 80 to 84 °C
CCc1cccc(C)c1N(C(=O)CCl)C(C)COC (centres undefined) | -40 °C
CC12CCC(C(CC(N)=O)C1=O)C2(C)C (centres undefined) | 101 °C
O=S(=O)(Cl)c1cc(Cl)ccc1Cl | 38 °C
CCOC(=O)c1cc2cccc([N+](=O)[O-])c2[nH]1 | 90 to 96 °C
O=C(CCl)Nc1ccc(F)cc1 | 131 to 132 °C
O=C(O)CSCCS(=O)(=O)c1ccc(Cl)cc1 | 127 to 129 °C
O=Cc1ccc(Br)cc1 | 67 °C
Oc1ccc2c3c1OC1C(O)C=CC4C(C2)NCCC341 (centres undefined) | 273 °C
O=C(Cl)c1ccc2occc2c1 | 67 to 68 °C
O=C(O)c1cccc(F)c1C(=O)O | 171 to 175 °C
N#Cc1c(-c2ccc(Br)cc2)cc2c(C#N)c(=N)n(C(=O)c3ccccc3)n2c1N | 190 °C
CN(C)c1ccn2c(=O)c3ccccc3cc2c1 | 157 °C
N#CC1=C(N)N2C(=C(C#N)C1c1ccc(Cl)cc1)Sc1ccccc12 (centres undefined) | 209 °C
CCCCNc1cc(C(=O)O)cc(S(N)(=O)=O)c1Oc1ccccc1 | 231 °C
CSc1nc(N)nc(N2CCCCC2)n1 | 156 to 158 °C
CC(C)C1=CC2=CCC3C(C)(C(=O)O)CCCC3(C)C2CC1 (centres undefined) | 174 °C
NNc1ccc([N+](=O)[O-])cn1 | 206 °C
O=C(O)c1cc2ccccc2c2ccccc12 | 253 °C
COc1ccc(C(=O)c2noc(-c3ccccc3)c2S(=O)(=O)c2ccccc2)cc1 | 161 °C
CCN(CC)c1ccc(N)cc1 | 27 °C
NNC(=O)c1csc(CS(=O)(=O)c2ccc(Cl)cc2)n1 | 206 to 207 °C
O=C(O)C1CCCO1 (centres undefined) | 21 °C
